Test results reported in patent US20120034613A1, “Apparatus and Method for Testing Relationships Between Gene Expression and Physical Appearance of Skin” (NSE Products, Inc., priority 2010, published 2012).

System: EpidermFT™ Skin Model (EFT-400) full thickness skin cultures
Assay: Affymetrix GeneChip HG U133 Plus 2.0 microarray global gene expression, agent-exposed vs untreated skin cultures
Type: cell-based, human
Settings: Salicin 0.5% vs Untreated Control, 24 hr treatment

## OCc1ccccc1O[C@@H]1O[C@H](CO)[C@@H](O)[C@H](O)[C@H]1O [Salicin, 2-(Hydroxymethyl)phenyl β-D-glucospyranoside]
  Fold change ING1 (209808_x_at): 2.572
  Fold change IRAK2 (231779_at): 2.734
  Fold change IRAK3 (220034_at): 2.411
  Fold change ITPRIP (225582_at): 2.421
  Fold change JHDM1D (225142_at): 2.825
  Fold change KCNA3 (207237_at): 2.308
  Fold change KCNE4 (222379_at): 2.686
  Fold change KCNE4 (1552508_at): 2.802
  Fold change KCNJ8 (205303_at): 2.493
  Fold change KCNJ8 (205304_s_at): 2.387
  Fold change KLF15 (231015_at): 2.338
  Fold change KLHL29 (229310_at): 2.719
  Fold change LCP1 (208885_at): 2.513
  Fold change LOC285628 (232504_at): 2.636
  Fold change LOC440028 (1562606_a_at): 2.7
  Fold change LOC729222 /// PPFIBP1 (214375_at): 2.426
  Fold change LOC100128821 /// ZEB2 (235593_at): 2.365
  Fold change LOC100132244 (229438_at): 2.299
  Fold change LPAR1 (204036_at): 2.391
  Fold change LPAR1 (204037_at): 2.425
  Fold change LPAR1 (204038_s_at): 2.732
  Fold change LPPR4 (213496_at): 2.406
  Fold change LRCH2 (227688_at): 2.318
  Fold change LRRK2 (229584_at): 2.314
  Fold change MAGEA4 (214254_at): 2.513
  Fold change MAP3K4 (216199_s_at): 2.654
  Fold change MAP3K5 (203836_s_at): 2.356
  Fold change MAP9 (220145_at): 2.4529
  Fold change MASP1 (232224_at): 2.402
  Fold change MASP1 (235770_at): 2.324
  Fold change MESDC1 (223264_at): 2.618
  Fold change MGST1 (239001_at): 2.428
  Fold change MMD (203414_at): 2.313
  Fold change MTHFD2L (220346_at): 2.597
  Fold change MYO3B (1552578_a_at): 2.338
  Fold change NAMPT (217738_at): 2.668
  Fold change NEGR1 (1553194_at): 2.339
  Fold change NEXN (226103_at): 2.323
  Fold change NFKB2 (207535_s_at): 2.67
  Fold change NFKBIZ (223217_s_at): 2.35
  Fold change NOVA1 (205794_s_at): 2.682
  Fold change NR4A1 (202340_x_at): 2.338
  Fold change NRP2 (228699_at): 2.306
  Fold change OLAH (222945_x_at): 2.586
  Fold change PAPPA (201981_at): 2.727
  Fold change PAPPA (224940_s_at): 2.664
  Fold change PAPPA (224941_at): 2.737
  Fold change PAPPA (228128_x_at): 2.482
  Fold change PAPPA (1559400_s_at): 2.415
  Fold change PCDH7 (210941_at): 2.333
  Fold change PCSK1 (205825_at): 2.59
  Fold change PDE4D (211840_s_at): 2.429
  Fold change PEG10 (212092_at): 2.813
  Fold change PF4 (206390_x_at): 2.652
  Fold change PGM2L1 (229256_at): 2.478
  Fold change PHLDA1 (217996_at): 2.515
  Fold change PHTF1 (215285_s_at): 2.498
  Fold change PI15 (229947_at): 2.619
  Fold change PID1 (219093_at): 2.447
  Fold change PID1 (237867_s_at): 2.743
  Fold change PISD (202392_s_at): 2.402
  Fold change PITPNC1 (238649_at): 2.621
  Fold change PLAUR (211924_s_at): 2.357
  Fold change PLEKHA3 (223370_at): 2.302
  Fold change PTGER4 (204897_at): 2.525
  Fold change PTGES (207388_s_at): 2.768
  Fold change PTGES (210367_s_at): 2.519
  Fold change PTGS1 (205128_x_at): 2.327
  Fold change PTGS1 (215813_s_at): 2.306
  Fold change PTHLH (206300_s_at): 2.505
  Fold change PTHLH (211756_at): 2.599
  Fold change PTPRG (204944_at): 2.299
  Fold change QKI (228540_at): 2.426
  Fold change RAB3B (205924_at): 2.634
  Fold change RAB3B (227123_at): 2.514
  Fold change RAB23 (220955_x_at): 2.644
  Fold change RABGGTB (209180_at): 2.305
  Fold change RABGGTB (213704_at): 2.423
  Fold change RAI14 (202052_s_at): 2.503
  Fold change RASSF8 (235996_at): 2.788
  Fold change RGS3 (203823_at): 2.462
  Fold change RGS5 (209070_s_at): 2.7
  Fold change RGS12 (242079_at): 2.358
  Fold change RHOQ (212122_at): 2.398
  Fold change SEC24A (212902_at): 2.298
  Fold change SEMA3A (206805_at): 2.505
  Fold change SETDB2 (235339_at): 2.377
  Fold change SGK1 (201739_at): 2.419
  Fold change SH3RF3 (228461_at): 2.389
  Fold change SHOX (207570_at): 2.312
  Fold change SLC6A15 (232263_at): 2.365
  Fold change SLC11A2 (237106_at): 2.533
  Fold change SLC20A1 (230494_at): 2.526
  Fold change SLC43A3 (210692_s_at): 2.457
  Fold change SLFN11 (226743_at): 2.451
  Fold change SLIT2 (209897_s_at): 2.499
  Fold change SNHG12 (223774_at): 2.339
  Fold change SOCS2 (203373_at): 2.46
  Fold change SPON1 (209437_s_at): 2.36
  Fold change SPON1 (213993_at): 2.499
  Fold change SQSTM1 (213112_s_at): 2.447
  Fold change ST3GAL1 (208322_s_at): 2.644
  Fold change ST3GAL1 (225033_at): 2.64
  Fold change STK17B (205214_at): 2.309
  Fold change SULF1 (212344_at): 2.665
  Fold change TAF1A (206613_s_at): 2.359
  Fold change TAGLN (205547_s_at): 2.426
  Fold change TBC1D1 (212350_at): 2.386
  Fold change TBC1D1 (227945_at): 2.566
  Fold change TGM2 (201042_at): 2.351
  Fold change THBS1 (201108_s_at): 2.756
  Fold change THBS1 (239336_at): 2.417
  Fold change THRAP3 (242163_at): 2.62
  Fold change TMEM38B (222735_at): 2.489
